Experimental data taken from patent US10766865B2, “PKM2 modulators and methods for their use” (TOLERO PHARMACEUTICALS, INC., priority 2012, dated 2020).
Like-named read-outs stand apart in the source and are kept apart here.

Target: PKM2 (Homo sapiens, UniProt P14618)
Test: PKM2 Biochemical Assay
Settings: for Max. Resp.: % maximum response in a biochemical assay as compared with Fructose 1,6-bisphosphate

Sequence of PKM2 (P14618 whole entry): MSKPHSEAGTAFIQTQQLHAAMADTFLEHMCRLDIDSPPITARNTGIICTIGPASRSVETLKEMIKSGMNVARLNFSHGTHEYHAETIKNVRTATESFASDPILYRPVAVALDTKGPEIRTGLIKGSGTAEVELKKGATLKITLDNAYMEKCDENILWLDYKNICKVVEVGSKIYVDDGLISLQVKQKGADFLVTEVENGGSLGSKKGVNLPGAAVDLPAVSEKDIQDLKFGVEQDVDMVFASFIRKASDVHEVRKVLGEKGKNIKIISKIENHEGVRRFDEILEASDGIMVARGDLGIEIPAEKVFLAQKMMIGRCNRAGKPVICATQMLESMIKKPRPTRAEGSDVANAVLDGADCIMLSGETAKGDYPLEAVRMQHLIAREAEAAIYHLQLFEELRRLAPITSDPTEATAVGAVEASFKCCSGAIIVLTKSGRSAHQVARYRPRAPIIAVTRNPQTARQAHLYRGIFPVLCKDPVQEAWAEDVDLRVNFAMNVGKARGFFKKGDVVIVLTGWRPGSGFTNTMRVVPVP

Row | Max. Resp. | Compound | other results
1 | 100% | Nc1cccc(CN(CCN2CCCCCC2)C(=O)c2cc(C(F)(F)F)n[nH]2)c1F [Example 216, N-(3-amino-2-fluorobenzyl)-N-(2-(azepan-1-yl)ethyl)-3-(trifluoromethyl)-1H-pyrazole-5-carboxamide] | –
2 | 100% | O=C(c1cc(C(F)(F)F)n[nH]1)N(CCN1CCCCC1)Cc1c(Cl)cccc1Cl [Example 180, N-(2,6-dichlorobenzyl)-3-(trifluoromethyl)-N-(2-(piperidin-1-yl)ethyl)-1H-pyrazole-5-carboxamide] | –
3 | 76% | CCOCCN(Cc1c(Cl)cccc1Cl)C(=O)c1cc(C(F)(F)F)n[nH]1 [Example 42] | –
4 | 100% | CC1CCCCN1CCN(Cc1ccccc1Cl)C(=O)c1cc(C(F)(F)F)n[nH]1 (centres unmarked) [Example 192, N-(2-chlorobenzyl)-3-(trifluoromethyl)-N-(2-(2-methylpiperidin-1-yl)ethyl)-1H-pyrazole-5-carboxamide] | –
5 | 100% | CC1CCCCN1CCN(Cc1cc(N)ccc1Cl)C(=O)c1cc(C(F)(F)F)n[nH]1 (centres unmarked) [Example 202, N-(5-amino-2-chlorobenzyl)-3-(trifluoromethyl)-N-(2-(2-methylpiperidin-1-yl)ethyl)-1H-pyrazole-5-carboxamide] | –
6 | 88% | O=C(c1cc(C(F)(F)F)n[nH]1)N(CCC1CCCOC1)Cc1ccccc1Cl (centres unmarked) [Example 36] | –
7 | 100% | O=C(c1cc(C(F)(F)F)n[nH]1)N(CCN1CCC(F)(F)CC1)Cc1ccccc1Cl [Example 205, N-(2-chlorobenzyl)-3-(trifluoromethyl)-N-(2-(4,4-difluoropiperidin-1-yl)ethyl)-1H-pyrazole-5-carboxamide] | –
8 | 100% | CC1CCCCN1CCN(Cc1ccccc1F)C(=O)c1cc(C(F)(F)F)n[nH]1 (centres unmarked) [Example 203, N-(2-fluorobenzyl)-3-(trifluoromethyl)-N-(2-(2-methylpiperidin-1-yl)ethyl)-1H-pyrazole-5-carboxamide] | –
9 | 71% | O=C(c1cc(C(F)(F)F)n[nH]1)N(CCC1CCS(=O)(=O)C1)Cc1c(Cl)cccc1Cl (centres unmarked) [Example 64] | –
10 | 100% | O=C(c1cc(C(F)(F)F)n[nH]1)N(Cc1ccccc1Cl)CC1CCC1 [Example 127, N-(2-chlorobenzyl)-N-(cyclobutylmethyl)-3-(trifluoromethyl)-1H-pyrazole-5-carboxamide] | –
11 | 100% | O=C(c1cc(C(F)(F)F)n[nH]1)N(CCN1CCCC1)Cc1ccccc1F [Example 158, N-(2-fluorobenzyl)-3-(trifluoromethyl)-N-(2-(pyrrolidin-1-yl)ethyl)-1H-pyrazole-5-carboxamide] | –
12 | 71% | CCN1CCC(CCN(Cc2c(Cl)cccc2Cl)C(=O)c2cc(C(F)(F)F)n[nH]2)CC1 [Example 105] | –
13 | 100% | O=C(c1cc(C(F)(F)F)n[nH]1)N(CCN1CCC(O)CC1)Cc1ccccc1Cl [Example 219, N-(2-chlorobenzyl)-3-(trifluoromethyl)-N-(2-(4-hydroxypiperidin-1-yl)ethyl)-1H-pyrazole-5-carboxamide] | –
14 | 100% | Nc1cccc(CN(CCN2CCCCCC2)C(=O)c2cc(C(F)(F)F)n[nH]2)c1Cl [Example 213, N-(3-amino-2-chlorobenzyl)-N-(2-(azepan-1-yl)ethyl)-3-(trifluoromethyl)-1H-pyrazole-5-carboxamide] | –
15 | 63% | CN1CCN(CCN(Cc2ccccc2Cl)C(=O)c2cc(C(F)(F)F)n[nH]2)CC1 [Example 104] | –
16 | 84% | O=C(c1cc(C(F)(F)F)n[nH]1)N(CCN1CCS(=O)(=O)CC1)Cc1c(Cl)cccc1Cl [Example 110] | –

Continued, molecule first:

Row | Compound | Max. Resp. | other results
17 | O=C(c1cc(C(F)(F)F)n[nH]1)N(Cc1ccccc1F)CC1CCOC1 (centres unmarked) [Example 150, N-(2-fluorobenzyl)-3-(trifluoromethyl)-N-((tetrahydrofuran-3-yl)methyl)-1H-pyrazole-5-carboxamide] | 68% | –
18 | CCCN(CC)CCN(Cc1c(N)cccc1F)C(=O)c1cc(C(F)(F)F)n[nH]1 [Example 240, N-(2-fluoro-6-aminobenzyl)-N-(2-(ethyl-propylamino)ethyl)-3-(trifluoromethyl)-1H-pyrazole-5-carboxamide] | 100% | –
19 | O=C(c1cc(Br)n[nH]1)N(CCC1CCS(=O)(=O)CC1)Cc1ccccc1F [Example 83] | 98% | –
20 | O=C(c1cc(C(F)(F)F)n[nH]1)N(Cc1ccccc1Cl)C1CCOCC1 [Example 35] | 59% | –
21 | O=C(c1cc(Cl)n[nH]1)N(Cc1cccc2[nH]cnc12)CC1CCC1 [Example 119, N-((1H-benzo[d]imidazol-4-yl)methyl)-3-chloro-N-(cyclobutylmethyl)-1H-pyrazole-5-carboxamide] | 100% | –
22 | CCN(CC)CCN(Cc1ccccc1Cl)C(=O)c1cc(Br)n[nH]1 [Example 175, N-(2-chlorobenzyl)-3-bromo-N-(2-(diethylamino)ethyl)-1H-pyrazole-5-carboxamide] | 100% | –
23 | O=C(c1cc(C(F)(F)F)n[nH]1)N(CCC1CCS(=O)(=O)C1)Cc1c(F)cccc1F (centres unmarked) [Example 66] | 102% | –
24 | CCN1CCCC1CN(Cc1ccccc1Cl)C(=O)c1cc(C(F)(F)F)n[nH]1 (centres unmarked) [Example 231, N-(2-chlorobenzyl)-N-((1-ethylpyrrolidin-2-yl)methyl)-3-(trifluoromethyl)-1H-pyrazole-5-carboxamide] | 65% | AC50: 148 nM
25 | O=C(c1cc(C(F)(F)F)n[nH]1)N(CCC1CCS(=O)(=O)C1)Cc1cccc(F)c1 (centres unmarked) [Example 67] | 95% | –
26 | O=C(c1cc(C(F)(F)F)n[nH]1)N(CCC1CCS(=O)(=O)C1)Cc1ccc(O)cc1F (centres unmarked) [Example 76] | 93% | –
27 | CCN(CC)CCN(Cc1cc(Cl)ccc1Cl)C(=O)c1cc(C(F)(F)F)n[nH]1 [Example 168, N-(2,5-dichlorobenzyl)-N-(2-(diethylamino)ethyl)-3-(trifluoromethyl)-1H-pyrazole-5-carboxamide] | 100% | –
28 | CO[C@H]1CC[C@H](N(Cc2cc(F)ccc2F)C(=O)c2cc(C(F)(F)F)n[nH]2)CC1 [Example 50] | 90% | –
29 | O=C(c1cc(C(F)(F)F)n[nH]1)N(Cc1ccccc1F)CC1CCS(=O)(=O)CC1 [Example 71] | 71% | –
30 | O=C(c1cc(C(F)(F)F)n[nH]1)N(CCC1CCS(=O)(=O)C1)Cc1cccc(F)c1F (centres unmarked) [Example 68] | 103% | –
31 | CN(C)Cc1c[nH]c2cccc(CN(CC3CCC3)C(=O)c3cc(Cl)n[nH]3)c12 [Example 118, 3-CHLORO-N-(CYCLOBUTYLMETHYL)-N-((3-((DIMETHYLAMINO)METHYL)-1H-INDOL-4-YL)METHYL)-1H-PYRAZOLE-5-CARBOXAMIDE] | 100% | –
32 | O=C(c1cc(C(F)(F)F)n[nH]1)N(CCC1CCS(=O)(=O)C1)Cc1ncccc1Cl (centres unmarked) [Example 92] | 74% | –
33 | O=C(c1cc(C(F)(F)F)n[nH]1)N(Cc1cccc2[nH]ccc12)CC1CCC1 [Example 6, N-((1H-indol-4-yl)methyl)-N-(cyclobutylmethyl)-3-(trifluoromethyl)-1H-pyrazole-5-carboxamide] | 100% | AC50 (read-out: PKM2 AC50, 2 nM PKM2, 75 μM ADP, 15 μM PEP, Kinase Glo): 213 nM
34 | O=C(c1cc(C(F)(F)F)n[nH]1)N(CCC1CCS(=O)(=O)C1)Cc1ccccn1 (centres unmarked) [Example 88] | 96% | –

Row | Compound | Max. Resp. | other results
35 | O=C(c1cc(C(F)(F)F)n[nH]1)N(CCC1CCS(=O)(=O)CC1)Cc1c(F)cccc1F [Example 85] | 100% | –
36 | CS(=O)(=O)N1CCC(CCN(Cc2ccccc2F)C(=O)c2cc(C(F)(F)F)n[nH]2)CC1 [Example 99] | 100% | –
37 | Nc1ccccc1CN(CCC1CCS(=O)(=O)C1)C(=O)c1cc(C(F)(F)F)n[nH]1 (centres unmarked) [Example 77] | 43% | –
38 | CO[C@H]1CC[C@H](N(Cc2cc(F)cc(F)c2)C(=O)c2cc(C(F)(F)F)n[nH]2)CC1 [Example 51] | 31% | –
39 | O=C(c1cc(C(F)(F)F)n[nH]1)N(CCOC1CCCC1)Cc1ccccc1F [Example 39] | 30% | –
40 | O=C(c1cc(C(F)(F)F)n[nH]1)N(Cc1ccc(O)cc1F)CC1COC1 [Example 15] | 102% | –
41 | CCO[C@H]1CC[C@H](N(Cc2ccccc2F)C(=O)c2cc(C(F)(F)F)n[nH]2)CC1 [Example 55] | 101% | –
42 | CCN(CC)CCN(Cc1cccc(F)c1Cl)C(=O)c1cc(C(F)(F)F)n[nH]1 [Example 182, N-(2-chloro-3-fluorobenzyl)-N-(2-(diethylamino)ethyl)-3-(trifluoromethyl)-1H-pyrazole-5-carboxamide] | 100% | –
43 | CCN(CC)CCN(Cc1ccccc1Cl)C(=O)c1[nH]nc(Cl)c1F [Example 193, N-(2-chlorobenzyl)-3-chloro-N-(2-(diethylamino)ethyl)-4-fluoro-1H-pyrazole-5-carboxamide] | 58% | –
44 | CN(C)CCCN(Cc1ccccc1Cl)C(=O)c1cc(C(F)(F)F)n[nH]1 [Example 186, N-(2-chlorobenzyl)-N-(3-(dimethylamino)propyl)-3-(trifluoromethyl)-1H-pyrazole-5-carboxamide] | 100% | –
45 | CCCCCN(Cc1ccccc1)C(=O)c1cc(C(F)(F)F)n[nH]1 [Example 19] | 76% | –
46 | CCN(CC)CCN(Cc1cc(N)ccc1Cl)C(=O)c1cc(C(F)(F)F)n[nH]1 [Example 183, N-(5-amino-2-chlorobenzyl)-N-(2-(diethylamino)ethyl)-3-(trifluoromethyl)-1H-pyrazole-5-carboxamide] | 100% | –
47 | CCN(CC)CCN(Cc1ccc(F)cc1Cl)C(=O)c1cc(C(F)(F)F)n[nH]1 [Example 170, N-(2-chloro-4-fluorobenzyl)-N-(2-(diethylamino)ethyl)-3-(trifluoromethyl)-1H-pyrazole-5-carboxamide] | 100% | –
48 | O=C(c1cc(C(F)(F)F)n[nH]1)N(CCC1CCS(=O)(=O)C1)Cc1ccccc1F (centres unmarked) [Example 63] | 87% | –
49 | O=C(c1cc(C(F)(F)F)n[nH]1)N(CCC1CCOC1)Cc1ccccc1Cl (centres unmarked) [Example 43] | 110% | –
50 | O=C(c1cc(C(F)(F)F)n[nH]1)N(CCC1CCS(=O)(=O)C1)Cc1cc(F)cc(F)c1 (centres unmarked) [Example 69] | 74% | –
51 | O=C(c1cc(C(F)(F)F)n[nH]1)N(Cc1cccc2[nH]ccc12)CC1COC1 [Example 12] | 101% | –
